20 molecules from patent US20240182470A1, “KRASG12C MUTANT PROTEIN INHIBITOR, PREARATION AND USE THEREOF” (YA THERAPEUTICS INC, priority 2021, published 2024) can be followed below.

Where only a bound is given, the exact number is not on record here.

This assay has as its system H358 (KRAS G12C mutant) cells. Nature of the assay: Tumor cell proliferation inhibition assay (Cell Titer-Glo, 72 h). The assay is classed as cell-based. Particulars: inhibition of tumor cell proliferation, 72 hours with compound, 10% fetal bovine serum; read-out: NCI-H538 IC50(nm). How it is done: The H358 (KRAS G^12C mutant) cells were digested, centrifuged and resuspended, and the cell density was measured with a Scepter automatic cell counter. The cells were diluted to a solution containing 44,000 cells per milliliter, and the density-adjusted cell solution was 90 microliters per well. into a 96-well culture plate. The 96-well plate was placed in a 37° C., 5% CO2 incubator. After the cells were cultured for 24 hours, different concentrations of the compounds to be tested were added. The cells were incubated with the compounds for 72 hours in the presence of 10% fetal bovine serum. Glo Luminescent Cell Viability Assay Kit (see manufacturer's instructions for details) was used to measure ATP content to assess cell growth inhibition. Briefly, 30 μl of Cell Titer-Glo reagent was added to each well, and the plate was shaken for 10 minutes to induce cell lysis. Fluoroskan
Ascent FL (Thermo) assay was used to record the fluorescent signal, and the maximum signal value was obtained from cells treated with dimethyl sulfoxide for 72 hours. The minimum signal value was obtained from the medium alone (the number of cells was zero), and the % inhibition rate=(the maximum signal value compound signal value)/(the maximum signal value—the minimum signal value×100%, and the data were processed using Graphpadprism 5 software. By sigmoid Dose-response curve fitting to calculate the IC50 value. “A” means IC50≤50 nM; “B” means 50<IC50≤500 nM; “C” means 500<IC50≤2000 nM; “D” means 2000 nM<IC50
(In general: In ATP-based viability assays light output follows the ATP content of the culture.)

As a reminder, the IC50 is the midpoint of a concentration-inhibition curve.

Regarding `C=C(F)C(=O)N1CCN(c2nc(OC[C@@]34CCCN3CC(F)(F)C4)nc3c(F)c(-c4cccc5cccc(C)c45)ccc23)C[C@@H]1CC#N` [Compound 68, 7-(8-Methylnaphthyl)-8-fluoro-4-(((S)-4-(2-fluoroacryloyl)-3-carbonitrileethylpiperazine)-1-yl)-2-(((S)-2,2-difluorotetrahydro-1H-pyrinyl-7a(5H)-yl)methoxy)quinazoline], the IC50 is at most 50 nM.
The same measure for `C=CC(=O)N1CCN(c2nc(OC[C@@H]3CCCN3C)nc3nc(-c4cccc5cccc(F)c45)c(F)cc23)[C@@H](C)C1` [Compound 10]: at most 50 nM; for “6-Chloro-7-(8-fluoronaphthyl)-8-fluoro-4-(((R)-4-acryloyl-2-methylpiperazine)-1-yl)-2-(((2R,7aS)-2-fluorotetrahydro-1H-pyrincycline-7a(5H)-yl)methoxy)quinazoline [Compound 37]”: at most 50 nM.
In the case of `C=CC(=O)N1CCN(c2nc(OCC34CCCN3CCC4)nc3c(F)c(-c4cccc5cccc(F)c45)ccc23)C[C@@H]1CC#N` [Compound 54, 7-(8-fluoronaphthyl)-8-fluoro-4-(((S)-4-(acryloyl)-3-carbonitrileethylpiperazine)-1-yl)-2-((tetrahydro-1H-pyrin-7a(5H)-yl)methoxy)quinazoline], the IC50 is at most 50 nM.
The same measure for `C=CC(=O)N1CCN(c2nc(OC[C@@]34CCCN3C[C@H](F)C4)nc3c(F)c(-c4cc(O)cc5cccc(F)c45)ccc23)[C@H](C)C1` [Compound 48, 7-(3-Hydroxy-8-fluoronaphthyl)-8-fluoro-4-(((R)-4-acryloyl-2-methylpiperazine)-1-yl)-2-(((2R, 7aS)-2-fluorotetrahydro-1H-pyrincycline-7a(5H)-yl)methoxy)quinazoline]: at most 50 nM; for “7-(8-Methylnaphthyl)-6-fluoro-4-(((S)-4-(2-fluoroacryloyl)-3-carbonitrileethylpiperazine)-1-yl)-2-(((2R,7aS)-2-fluorotetrahydro-1H-pyrinyl-7a(5H)-yl)methoxy)pyridine[2,3-d]lopyrimidine [Compound 82]”: at most 50 nM.
The same measure for `C=CC(=O)N1CCN(c2nc(OCC34CCCN3CCC4)nc3c(F)c(-c4cccc5cccc(F)c45)ccc23)[C@H](C)C1` [Compound 50, 7-(8-fluoronaphthyl)-8-fluoro-4-(((R)-4-acryloyl-2-methylpiperazine)-1-yl)-2-((tetrahydro-1H-pyrinecyclo-7a(5H)-yl)methoxy)quinazoline]: at most 50 nM; for “7-(2-Fluoro-6-hydroxyphenyl)-6-fluoro-4-(((S)-4-(2-fluoroacryloyl)-3-carbonitrileethylpiperazine)-1-yl)-2-(((S)-1-(methyl-d3)pyrrolidin-2-yl)methoxy)pyridine[2,3-d]lopyrimidine [Compound 11]”: over 2000 nM; for `C=CC(=O)N1CCN(c2nc(OC[C@@]34CCCN3C[C@H](F)C4)nc3nc(-c4cc(O)cc5cccc(F)c45)c(F)cc23)C[C@@H]1CC#N` [Compound 35, 7-(3-Hydroxy-8-fluoronaphthyl)-6-fluoro-4-(((S)-4-acryloyl-3-carbonitrileethylpiperazine)-1-yl)-2-(((2R,7aS)-2-fluorotetrahydro-1H-pyrinyl-7a(5H)-yl)methoxy)pyridine[2,3-d]lopyrimidine]: at most 50 nM.
Then `C=C(F)C(=O)N1CCN(c2nc(OC[C@@]34CCCN3C[C@H](F)C4)nc3c(F)c(-c4cccc5cccc(F)c45)c(Cl)cc23)C[C@@H]1CC#N` [Compound 41, 6-Chloro-7-(8-fluoronaphthyl)-8-fluoro-4-(((S)-4-(2-fluoroacryloyl)-3-carbonitrileethylpiperazine)-1-yl)-2-(((2R,7aS)-2-fluorotetrahydro-1H-pyrincycline-7a(5H)-yl)methoxy)quinazoline], with at most 50 nM.
In the case of `C=CC(=O)N1CCN(c2nc(OC[C@@]34CCCN3C[C@H](F)C4)nc3c(F)c(-c4cccc5cccc(F)c45)c(Cl)cc23)C[C@@H]1CC#N` [Compound 40, 6-Chloro-7-(8-fluoronaphthyl)-8-fluoro-4-(((S)-4-acryloyl-3-carbonitrileethylpiperazine)-1-yl)-2-(((2R,7aS)-2-fluorotetrahydro-1H-pyrinyl-7a(5H)-yl)methoxy)quinazoline], the IC50 was at most 50 nM.
For the molecule `C=C(F)C(=O)N1CCN(c2nc(OC[C@@]34CCCN3CC(F)(F)C4)nc3c(F)c(-c4cccc5cccc(F)c45)c(Cl)cc23)C[C@@H]1CC#N` [Compound 78, 6-Chloro-7-(8-fluoronaphthyl)-8-fluoro-4-(((S)-4-(2-fluoroacryloyl)-3-carbonitrileethylpiperazine)-1-yl)-2-(((S)-2,2-difluorotetrahydro-1H-pyrincycline-7a(5H)-yl)methoxy)quinazoline], the IC50 is at most 50 nM.
The same measure for `C=C(F)C(=O)N1C2CCC1CN(c1nc(OC[C@@]34CCCN3C[C@H](F)C4)nc3nc(-c4cc(O)cc5cccc(F)c45)c(F)cc13)C2` [Compound 32, 7-(3-Hydroxy-8-fluoronaphthyl)-6-fluoro-4-(8-(2-fluoroacryloyl)-3,8-diazabicyclo[3.2.1]octan-3-yl)-2-(((2R,7aS)-2-fluorotetrahydro-1H-pyrincycl-7a(5H)-yl)methoxy)pyridine[2,3-d]lopyrimidine]: at most 50 nM; for “6-Chloro-7-(8-methylnaphthyl)-8-fluoro-4-(((R)-4-acryloyl-2-methylpiperazine)-1-yl)-2-(((2R,7aS)-2-fluorotetrahydro-1H-pyrinyl-7a(5H)-yl)methoxy)quinazoline [Compound 73]”: at most 50 nM.
Then “7-(8-Fluoronaphthyl)-6-fluoro-4-(8-(2-fluoroacryloyl)-3,8-diazabicyclo[3.2.1]octan-3-yl)-2-(((2R,7aS)-2-fluorotetrahydro-1H-pyrinyl-7a(5H)-yl)methoxy)pyridine[2,3-d]lopyrimidine [Compound 31]”, with at most 50 nM; and `C=C(F)C(=O)N1CCN(c2nc(OC[C@@]34CCCN3C[C@H](F)C4)nc3c(F)c(-c4cc(O)cc5cccc(F)c45)ccc23)C[C@@H]1CC#N` [Compound 52], with at most 50 nM.
With “7-(8-Methylnaphthyl)-6-fluoro-4-(((R)-4-acryloyl-2-methylpiperazine)-1-yl)-1-y1)-2-(((S)-2,2-difluorotetrahydro-1H-pyrincyclo-7a(5H)-yl)methoxy)pyridine[2,3-d]lopyrimidine [Compound 80]”, the IC50 is at most 50 nM.
Then “6-Chloro-7-(3-hydroxy-8-fluoronaphthyl)-8-fluoro-4-(((S)-4-acryloyl-3-carbonitrileethylpiperazine)-1-yl)-2-(((S)-2,2-difluorotetrahydro-1H-pyrinyl-7a(5H)-yl)methoxy)quinazoline [Compound 76]”, with at most 50 nM; and “7-(8-Fluoronaphthalene)-4-(((R)-4-Acryloyl-3-carbonitrileethylpiperazine)-1-y1)-2-(((1-(pyrrolidin-1-yl)methylcyclopropan-1-yl)methoxy)pyridine[2,3-d]lopyrimidine [Compound 15]”, with at most 50 nM.
Then `C=CC(=O)N1C2CCC1CN(c1nc(OC[C@@]34CCCN3C[C@H](F)C4)nc3nc(-c4cccc5cccc(F)c45)c(F)cc13)C2` [Compound 27], with at most 50 nM.
